EP4570244A1, “ENHANCING AGENT OF CARDIOLIPIN MOLECULAR SPECIES THAT IS MITOCHONDRIAL COMPONENT” (Watanabe Oyster Laboratory Co., Ltd., priority 2022, dated 2024)

Legend:
[1] = system: Human renal proximal tubule cells (HK-2); assay: Cardiolipin measurement by LC-MS/MS in HK-2 cells under oxidative stress stimulation; type: cell-based
Method: (§1) Human renal proximal tubule cells (HK-2) were subcultured in Dulbecco's Modified Eagle's Medium (DMEM, Nacalai Tesque) containing 10% fetal bovine serum and 1% penicillin-streptmycin at 37°C in a 5% CO2 incubator. The following experiments were conducted using the oxidative stress inducer to confirm the cardiolipin increase effect of DHMBA on the oxidative stress.
HK-2 cells were seeded in a 6-well plate at a density of 1.0 × 10^5 cells/well and cultured for 24 hours. The cells were then divided into four groups with different stimulus conditions, and 2 mL thereof was added to each well.
The above-described four groups with the different stimulus conditions are as follows.
Control group (culture medium); oxidative stress group (final concentration 100 µM Oxidative Stress); oxidative stress + DHMBA 250 group (final concentration 100 µM Oxidative Stress + final concentration 250 µM DHMBA); and oxidative stress + DHMBA 500 group (final concentration 100 µM Oxidative Stress + final concentration 500 µM DHMBA).
After 24 hours, the cells were washed twice with phosphate-buffered saline (hereinafter referred to as PBS), and then 1 mL of PBS was added to each well and the cells were recovered using a scraper. In this cell suspension, 100 µL was used for protein quantification by a bicinchoninic acid (BCA) method. The protein concentration was used for correction of the cardiolipin concentration. The remaining cell suspension was centrifuged at 1,200 rpm for 5 minutes, the supernatant was removed, and then the precipitated cells were stored at -80°C.
For the cardiolipin measurement, the total intracellular lipids were extracted in the same way as in the previous reports (Chen Z, et al. Metabolomics, 16: 115, 2020).
In short, the lipids in the sample were extracted using hexane/isopropanol 3:2 (v/v, with 0.05% butylated hydroxytoluene), and then dried and hardened in an evaporator. Next, the sample was dissolved in methanol (MeOH), and insoluble substances were removed by centrifugation at 15,000 rpm for 15 minutes at 4°C. The total lipids extracted were stored at -80°C. The cardiolipin measurement was performed using LC-MS/MS, following the same procedure as before.

CDS2 = assay: qPCR expression level of cardiolipin biosynthesis-related gene in HK-2 cells under oxidative stress; type: cell-based, Human; conditions: oxidative stress + DHMBA, 24 hours, versus the increase in the oxidative stress group, corrected with β-actin, FIG. 5
Method: as §1
(§2) HK-2 cells were seeded in a 6-well plate at a density of 5.0 × 10^4 cells/well and cultured for 24 hours.
(§3) Next, under the same stimulus conditions as described above, 2 mL thereof was added to each well. After 24 hours, total RNA was recovered using NucleoSpin (registered trademark) RNA Kit (MACHEREY-NAGEL). The concentration of the purified RNA was quantified by Nanodrop (Invitrogen). From 1.0 µg of the total RNA, cDNA was synthesized according to a protocol for ReverTra Ace (registered trademark) qPCR RT Master Mix with gDNA Remover (TOYOBO).
(§4) The gene expression levels were measured according to a protocol for THUNDERBIRD (registered trademark) SYBR (registered trademark) qPCR Mix (TOYOBO). Measurements were performed using a CFX Connect™ real-time PCR analysis system (BioRad), and analyzed using a 2^-(ΔΔCT) method.
(§5) The gene expression level of the control group was set at 1 for comparison. The figures are expressed as mean ± SD (n = 4 for each group). […]

PNPLA8 = assay: qPCR expression level of cardiolipin remodeling and degradation-related gene in HK-2 cells under oxidative stress; type: cell-based, Human; conditions: oxidative stress + DHMBA, 24 hours, versus the increase in the oxidative stress group, corrected with β-actin, FIG. 6
Method: as §1, §2, §3, §4, §5

HADHB = assay: as above; type: cell-based, Human; conditions: oxidative stress + DHMBA, 24 hours, corrected with β-actin, FIG. 6
Method: as §1, §2, §3, §4, §5

[2] = oxidative stress + DHMBA, acyl group distribution, FIG. 4

COc1c(O)cc(CO)cc1O [DHMBA, 3,5-dihydroxy-4-methoxybenzyl alcohol]
cardiolipin molecular species ([1]; 100 µM oxidative stress inducer + DHMBA (250 or 500 µM), 24 hours, almost all species, FIG. 2): increased significantly | total cardiolipin content ([1]; co-treatment with 100 µM oxidative stress and 250 µM or 500 µM DHMBA, 24 hours, increase, FIG. 3): about 1.5 times | saturated fatty acid chain FA16:0 of cardiolipin [1, 2]: decreased | unsaturated fatty acid chain FA18:1 of cardiolipin [1, 2]: increased | unsaturated fatty acid chain FA18:2 of cardiolipin [1, 2]: increased | gene expression level of CDS2 (CDS2): decreased to the same level as the control group | gene expression level of PNPLA8 (PNPLA8): decreased to the same level as the control group | expression level of HADHB (HADHB): increased
